# According to patent US20240158446A1, “CYCLIC COMPOUND HAVING SELECTIVE INHIBITORY ACTION ON KRAS OVER HRAS AND NRAS” (CHUGAI SEIYAKU KABUSHIKI KAISHA, priority 2021, published 2024):
# Read-outs that look alike come from different tables or passages of the source. *1 amine or outer side, *2 acyl side, *3 side chain or, on linkers, in order; H or OH if unused. Where a SMILES comes first, the peptide text is derived from it. Bridges are numbered along the chain shown (N, C = ends). [ ]: non-standard residue; d: D form. The star is where a group is joined. hPhe(3,5-F2-4-CF3) = N[C@@H](CCc1cc(F)c(C(F)(F)F)c(F)c1)C(=O)O; hPhe(3-Cl-4-CF3) = N[C@@H](CCc1ccc(C(F)(F)F)c(Cl)c1)C(=O)O; NPrPhe(4-CF3) = CCCN[C@@H](Cc1ccc(C(F)(F)F)cc1)C(=O)O; X9 = CCCN([C@@H](Cc1ccc(F)cc1)C(=O)[*:2])[*:1]; NMeGly(cPent) = CN[C@H](C(=O)O)C1CCCC1; NMeD = CN[C@@H](CC(=O)O)C(=O)O; NMeL = CN[C@@H](CC(C)C)C(=O)O; αMeS = C[C@](N)(CO)C(=O)O; Ac6c = NC1(C(=O)O)CCCCC1; Morpholide = C1CN(*)CCO1; NMeA = CN[C@@H](C)C(=O)O; Ac5c = NC1(C(=O)O)CCCC1; Aze = O=C(O)[C@@H]1CCN1; Ac4c = NC1(C(=O)O)CCC1; Sar = CNCC(=O)O
# Key:
# [1] = molecular target: GDP-bound NRAS wild-type protein (Homo sapiens, UniProt P01111); test: Binding to NRAS by surface plasmon resonance (SPR), Single Cycle Kinetics; details: SPR; for NRAS/KRAS (ratio of KD value for NRAS to KD value for KRAS) / NRAS/KRAS (ratio of KD value with respect to NRAS to KD value with respect to KRAS): GDP-bound NRAS wild-type protein vs GDP-bound KRAS wild-type protein
# [2] = molecular target: GDP-bound HRAS wild-type protein (Homo sapiens, UniProt P01112); test: Binding to HRAS by surface plasmon resonance (SPR), Single Cycle Kinetics; details: SPR; for HRAS/KRAS (ratio of KD value for HRAS to KD value for KRAS) / HRAS/KRAS (ratio of KD value with respect to HRAS to KD value with respect to KRAS): GDP-bound HRAS wild-type protein vs GDP-bound KRAS wild-type protein
# [3] = molecular target: GDP-bound KRAS wild-type protein (Homo sapiens, UniProt P01116); test: Binding to KRAS by surface plasmon resonance (SPR), Single Cycle Kinetics; details: GDP-bound KRAS wild-type protein, read-out: KRAS KD
# [4] = SPR Single Cycle Kinetics, 1:1 binding model
# Sequence of GDP-bound HRAS wild-type protein (P01112 whole entry): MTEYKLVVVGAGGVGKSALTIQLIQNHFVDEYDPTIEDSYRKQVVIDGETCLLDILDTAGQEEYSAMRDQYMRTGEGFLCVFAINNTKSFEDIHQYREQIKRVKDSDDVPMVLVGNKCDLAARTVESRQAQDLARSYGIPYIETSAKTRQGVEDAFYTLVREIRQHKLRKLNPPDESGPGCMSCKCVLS
# Sequence of GDP-bound NRAS wild-type protein (P01111 whole entry): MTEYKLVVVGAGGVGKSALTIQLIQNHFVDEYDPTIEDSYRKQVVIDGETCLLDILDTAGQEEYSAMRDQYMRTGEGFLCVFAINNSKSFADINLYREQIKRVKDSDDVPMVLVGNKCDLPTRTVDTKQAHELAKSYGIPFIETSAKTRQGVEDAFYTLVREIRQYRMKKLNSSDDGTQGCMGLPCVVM
# Sequence of GDP-bound KRAS wild-type protein (P01116 whole entry): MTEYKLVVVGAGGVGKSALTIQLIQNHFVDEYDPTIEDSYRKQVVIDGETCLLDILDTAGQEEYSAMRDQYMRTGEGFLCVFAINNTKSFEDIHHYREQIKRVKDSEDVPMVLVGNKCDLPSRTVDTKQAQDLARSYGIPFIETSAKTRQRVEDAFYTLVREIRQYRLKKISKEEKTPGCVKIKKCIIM
SMILES,"Kd ([3]; SPR, Single Cycle Kinetics) [pM]","Kd [3, 4] [pM]",NRAS/KRAS (ratio of KD value for NRAS to KD value for KRAS) [1],HRAS/KRAS (ratio of KD value for HRAS to KD value for KRAS) [2],NRAS/KRAS (ratio of KD value with respect to NRAS to KD value with respect to KRAS) [1],HRAS/KRAS (ratio of KD value with respect to HRAS to KD value with respect to KRAS) [2],also measured
CCO[C@@H]1C[C@H]2C(=O)NC3(CC(C)(C)C3)C(=O)N(C)[C@@H](C3CCCC3)C(=O)N(C)[C@H](C(=O)N(C)C)CC(=O)N(C)[C@H]3CCCCCCc4ccc(cc4)C[C@@H](C(=O)N(C)CC(=O)N[C@@H](CCc4ccc(Cl)c(Cl)c4)C(=O)N2C1)N1CC/C=C\C[C@@H](C1=O)N(C)C(=O)CN(C)C(=O)[C@H]([C@@H](C)CC)NC3=O [PP3071],120,–,A (a compound having 10 or more and less than 20 is denoted as A),B (a compound having 3 or more and less than 10 is denoted as B),–,–,–
CCCN1C(=O)CN(C)C(=O)CN(C)C(=O)[C@H]([C@@H](C)CC)NC(=O)[C@H](CC(C)C)N(C)C(=O)C[C@@H](C(=O)N2CCOCC2)NC(=O)[C@H](C2CCCC2)N(C)C(=O)C2(CCC2)NC(=O)[C@@H]2CCCN2C(=O)[C@H](CCc2ccc(C(F)(F)F)c(Cl)c2)NC(=O)CN(C)C(=O)[C@@H]1Cc1ccc(C(F)(F)F)cc1 [PP0320] ([NMeL]I[Sar][Sar][NPrPhe(4-CF3)][Sar][hPhe(3-Cl-4-CF3)]P[Ac4c][NMeGly(cPent)]D-Morpholide; lactam N-11),–,900,B (a compound having 3 or more and less than 10 is denoted as B),B (a compound having 3 or more and less than 10 is denoted as B),–,–,–
CC[C@H](C)[C@@H]1NC(=O)[C@@H](CC(C)C)N(C)C(=O)C[C@@H](C(=O)N(C)C)N(C)C(=O)[C@@H](C2CCCC2)N(C)C(=O)C2(CCCC2)NC(=O)[C@@H]2CCCN2C(=O)[C@H](CCc2ccc(C(F)(F)F)c(Cl)c2)NC(=O)CN(C)C(=O)[C@@H](Cc2ccc(C)cc2)N2CC/C=C\CCN(CC2=O)C(=O)CN(C)C1=O [PP0618],–,6200,–,–,C (A compound having a KD ratio of 0.1 or more and less than 3 is denoted as C),C (A compound having a KD ratio of 0.1 or more and less than 3 is denoted as C),–
CCCN1C(=O)[C@@H]2CCN2C(=O)[C@H](C)N(C)C(=O)[C@H]([C@@H](C)CC)NC(=O)[C@H](CC(C)C)N(C)C(=O)C[C@@H](C(=O)N2CCOCC2)N(C)C(=O)[C@H](C2CCCC2)N(C)C(=O)C2(CCCCC2)NC(=O)[C@@H]2CCCN2C(=O)[C@H](CCc2ccc(C(F)(F)F)c(Cl)c2)NC(=O)CN(C)C(=O)[C@@H]1Cc1ccc(C(F)(F)F)cc1 [PP0226] ([NMeL]I[NMeA][Aze][NPrPhe(4-CF3)][Sar][hPhe(3-Cl-4-CF3)]P[Ac6c][NMeGly(cPent)][NMeD]-Morpholide; lactam N-11),–,470,C (A compound having a KD ratio of 0.1 or more and less than 3 is denoted as C),B (a compound having 3 or more and less than 10 is denoted as B),–,–,–
"CCCN1C(=O)[C@@H]2CCN2C(=O)CN(C)C(=O)[C@H]([C@@H](C)CC)NC(=O)[C@H](CC(C)C)N(C)C(=O)C[C@@H](C(=O)N2CCOCC2)N(C)C(=O)[C@H](C2CCCC2)N(C)C(=O)[C@](C)(COC)NC(=O)[C@@H]2CCCN2C(=O)[C@H](CCc2cc(F)c(C(F)(F)F)c(F)c2)NC(=O)CN(C)C(=O)[C@@H]1Cc1ccc(C(F)(F)F)cc1 [PP0798] ([NMeL]I[Sar][Aze][NPrPhe(4-CF3)][Sar][hPhe(3,5-F2-4-CF3)]P[αMeS](Me)[NMeGly(cPent)][NMeD]-Morpholide; lactam N-11)",–,1900,–,–,C (A compound having a KD ratio of 0.1 or more and less than 3 is denoted as C),B (a compound having 3 or more and less than 10 is denoted as B),–
CCCN1C(=O)CN(C)C(=O)CN(C)C(=O)[C@H]([C@@H](C)CC)NC(=O)[C@H](CC(C)C)N(C)C(=O)C[C@@H](C(=O)N2CCOCC2)N(C)C(=O)[C@H](C2CCCC2)N(C)C(=O)C2(CCCC2)NC(=O)[C@@H]2CCCN2C(=O)[C@H](CCc2ccc(C(F)(F)F)c(Cl)c2)NC(=O)CN(C)C(=O)[C@@H]1Cc1ccc(F)cc1 [PP0214] ([NMeL]I[Sar][Sar][X9][Sar][hPhe(3-Cl-4-CF3)]P[Ac5c][NMeGly(cPent)][NMeD]-Morpholide; lactam N-11),–,130,B (a compound having 3 or more and less than 10 is denoted as B),C (A compound having a KD ratio of 0.1 or more and less than 3 is denoted as C),–,–,–
CCO[C@@H]1C[C@H]2C(=O)NC3(CCC3)C(=O)N(C)[C@@H](C(CC)CC)C(=O)N(C)[C@H](C(=O)N(C)C)CC(=O)N(C)[C@@H](CC3CCCC3)C(=O)N[C@@H]([C@@H](C)CC)C(=O)N(C)CC(=O)N(C)[C@H]3C/C=C\CCN(C3=O)[C@@H](Cc3ccc(F)cc3C)C(=O)N(C)CC(=O)N[C@@H](CCc3cc(F)c(C(F)(F)F)c(F)c3)C(=O)N2C1 [PP1516],–,–,–,–,–,–,"NRAS/KRAS (ratio of KD value for NRAS to KD value for KRAS) ([1]; KD ratio class): A (a compound having 10 or more and less than 20 is denoted as A); HRAS/KRAS (ratio of KD value for HRAS to KD value for KRAS) ([2]; KD ratio class): B (a compound having 3 or more and less than 10 is denoted as B); Kd ([3]; SPR, Single Cycle Kinetics, 1:1 binding model): 980 pM"

# Second part, led by results:
"Kd ([3]; SPR, Single Cycle Kinetics) [pM]","Kd [3, 4] [pM]",SMILES,NRAS/KRAS (ratio of KD value for NRAS to KD value for KRAS) [1],HRAS/KRAS (ratio of KD value for HRAS to KD value for KRAS) [2],NRAS/KRAS (ratio of KD value with respect to NRAS to KD value with respect to KRAS) [1],HRAS/KRAS (ratio of KD value with respect to HRAS to KD value with respect to KRAS) [2],also measured
–,440,C#CC[C@H]1C(=O)N[C@@H]([C@@H](C)CC)C(=O)N(C)CC(=O)N(C)[C@H]2CCCCCN(C2=O)[C@@H](Cc2ccc(C(F)(F)F)cc2)C(=O)N(C)CC(=O)N[C@@H](CCc2cc(F)c(C(F)(F)F)c(F)c2)C(=O)N2C[C@H](OCC)C[C@H]2C(=O)NC2(CCC2)C(=O)N(C)[C@@H](C2CCCC2)C(=O)N(C)[C@H](C(=O)N2CCOCC2)CC(=O)N1C [PP0681],–,–,B (a compound having 3 or more and less than 10 is denoted as B),B (a compound having 3 or more and less than 10 is denoted as B),–
51,–,CCO[C@@H]1C[C@H]2C(=O)NC3(CC(C)(C)C3)C(=O)N(C)[C@@H](C3CCCC3)C(=O)N(C)[C@H](C(=O)N(C)CC)CC(=O)N(C)[C@H]3CCC/C=C/c4ccc(cc4)C[C@@H](C(=O)N(C)CC(=O)N[C@@H](CCc4cc(F)c(C(F)(F)F)c(F)c4)C(=O)N2C1)N1CC/C=C\C[C@@H](C1=O)N(C)C(=O)CN(C)C(=O)[C@H]([C@@H](C)CC)NC3=O [PP1835],–,–,–,–,NRAS/KRAS (KD ratio) ([1]; ratio of KD for GDP-bound NRAS wild-type protein to KD for KRAS): A (a compound having 10 or more and less than 20 is denoted as A); HRAS/KRAS (KD ratio) ([2]; ratio of KD for GDP-bound HRAS wild-type protein to KD for KRAS): B (a compound having 3 or more and less than 10 is denoted as B)
–,72,CCCN1C(=O)[C@@H]2CCN2C(=O)CN(C)C(=O)[C@H]([C@@H](C)CC)NC(=O)[C@H](CC(C)C)N(C)C(=O)C[C@@H](C(=O)N(C)C)N(C)C(=O)[C@H](C2CCCC2)N(C)C(=O)C2(CCC2)NC(=O)[C@@H]2CCCN2C(=O)[C@H](CCc2ccc(C(F)(F)F)c(Cl)c2)NC(=O)CN(C)C(=O)[C@@H]1Cc1ccc(C(F)(F)F)cc1 [PP0441] ([NMeL]I[Sar][Aze][NPrPhe(4-CF3)][Sar][hPhe(3-Cl-4-CF3)]P[Ac4c][NMeGly(cPent)][NMeD]-NMe2; lactam N-11),–,–,C (A compound having a KD ratio of 0.1 or more and less than 3 is denoted as C),C (A compound having a KD ratio of 0.1 or more and less than 3 is denoted as C),–
69,–,"CCO[C@@H]1C[C@H]2C(=O)NC3(CCC3)C(=O)N(C)[C@@H](C3CCCC3)C(=O)N(C)[C@H](C(=O)N(C)C)CC(=O)N(C)[C@@H](Cc3ccccc3)C(=O)N[C@@H]([C@@H](C)CC)C(=O)N(C)CC(=O)N(C)[C@H]3C/C=C\CCN(C3=O)[C@@H](Cc3ccc(C(F)(F)F)cc3)C(=O)N(C)CC(=O)N[C@@H](CCc3cc(F)c(C(F)(F)F)c(F)c3)C(=O)N2C1 [PP1116, (2S,8S,12R,14S,20S,23S,27S,30S,36S,38Z)-27-benzyl-20-cyclopentyl-8-[2-[3,5-difluoro-4-(trifluoromethyl)phenyl]ethyl]-12-ethoxy-N,N,4,19,22,26,32,35-octamethyl-30-[(1S)-1-methylpropyl]-3,6,9,15,18,21,25,28,31,34,42-undecaoxo-2-[[4-(trifluoromethyl)phenyl]methyl]spiro[1,4,7,10,16,19,22,26,29,32,35-undecazatricyclo[34.5.1.0^10,14]dotetracont-38-ene-17,1′-cyclobutane]-23-carboxamide]",A (a compound having 10 or more and less than 20 is denoted as A),A (a compound having 10 or more and less than 20 is denoted as A),–,–,–
240,–,CCCN(C)C(=O)[C@@H]1CC(=O)N(C)[C@@H](C(C)C)C(=O)N[C@@H]([C@@H](C)CC)C(=O)N(C)CC(=O)N(C)[C@H]2C/C=C\CCN(C2=O)[C@@H](Cc2ccc(C(F)(F)F)cc2)C(=O)N(C)CC(=O)N[C@@H](CCc2ccc(C(F)(F)F)c(OC)c2)C(=O)N2C[C@@H](C)C[C@H]2C(=O)NC2(CCC2)C(=O)N(C)[C@@H](C2CCCC2)C(=O)N1C [PP2067],AA (a compound having 20 or more is denoted as AA),A (a compound having 10 or more and less than 20 is denoted as A),–,–,–
